Laboratory results: patent publication US20110319427A1 (priority 2009, published 2011)
Peptide text beside a SMILES is read from it. * marks the point of attachment. Cbz = O=C(OCc1ccccc1)*

What was measured:
[1] = tested on: T1, proteasomes isolated from rabbit reticulocytes; format: biochemical; settings: Lineweaver-Burk plot analysis
T1 construct: other: Lineweaver-Burk plot analysis; other: at the Fa 10; other: at the Fa 25; other: at the Fa 50
Method: (§1) Data represent the mean±SD.
(§2) After incubation, cleavage of the fluorogenic substrate Z-Leu-Leu-Glu-AMC was measured as above. […] The approximate binding sites of bortezomib that is located inside the catalytic chamber are also indicated.
(§3) Proteasome complexes were isolated from rabbit reticulocytes and T. acidophilum as described previously.
(§4) Data are expressed as mean values±SD. The statistical significance was computed with Student's t-test. […] Isobologram analysis was performed with CalcuSyn software (Biosoft, Ferguson, Mo., and Cambridge, UK). A combination index (CI) less than 1.0 indicated synergism.

[2] = target: T2, proteasomes isolated from rabbit reticulocytes; format: biochemical; settings: Lineweaver-Burk plot analysis, noncompetitive model
T2 construct: Ki
Method: as §1, §2, §3, §4

[3] = target: T3, proteasome isolated from archaebacterium T. acidophilum (Thermoplasma acidophilum, UniProt P25156); assay: enzymatic activity of purified T. acidophilum proteasome (Suc-LLVY-AMC cleavage); format: biochemical
T3 construct: made in house
Text: Data represent the mean±SD. A Lineweaver-Burk plot is presented as a fit to a noncompetitive model of inhibition.
as §3

[4] = tested on: proteasome in protein extracts from MDAY-D2 leukemia cells; assay: proteasome activity in cell extracts (Suc-LLVY-AMC); format: biochemical, murine; settings: added to extracts derived from MDAY-D2 leukemia cells
Method: A) Protein extracts from MDAY-D2 leukemia cells were treated with aliquots of compounds from a focused chemical library (final concentration 5 μM).

[5] = target: T4, α7-α7 half-proteasome of the T. acidophilum 20S proteasome (Thermoplasma acidophilum, UniProt P25156); assay: inhibitor binding to the proteasome by NMR; settings: 50° C., methyl-labelled α7-α7
T4 construct: His-tag (N, cleaved yes); made in house
Text: The 20S proteasome from T. acidophilum was produced as described previously with the alpha and beta subunits co-expressed from 2 different plasmids (where the beta subunit carried a C terminal His-tag). Samples of the half-proteasome comprised of pairs of alpha-rings, a7-a7, were produced by overexpression of the a subunit that carried a N-terminal cleavable His-tag that was removed during purification. Methyl labelling of proteins for NMR analysis was achieved by growing cells in D2O based minimal medium with ^2H-^12C glucose as the carbon source. One hour before induction of protein expression, alpha-ketobutyric acid (60 mg/L) and alpha-ketoisovaleric acid (100 mg/L; only one of the two isopropyl methyls was ^13CH3 labeled, the other ^12CD3) were added to introduce ^13CH3 methyl groups in Ile, Leu and Val. Proteins were purified by Ni-NTA affinity resin and size exclusion chromatography.
NMR experiments with the (a7-a7) proteasome were performed on Varian 600 MHz spectrometers at 50° C. on samples that were ˜[…], 100% D2O, 25 mM potassium phosphate pH 6.8, 50 mM NaCl, 1 mM EDTA, 0.03% NaN3 and 2 mM DTT similar to previously described. NMR data was processed and analyzed with the nmrPipe/nmrDraw software package.

LP1 myeloma cell lines = assay: ubiquitinated proteins by immunoblotting; format: cell-based, human; settings: 24 hours after treatment
Method: Whole cell lysates were prepared from myeloma cells as described previously. Briefly, cells were washed with phosphate-buffered saline (PBS, pH 7.4) and re-suspended in lysis buffer [10 mM Tris (pH 7.4), 150 mM NaCl, 0.1% Triton X-100, 0.5% sodium deoxycholate, and 5 mM EDTA] containing protease inhibitors (Complete tablets, Roche, Indianapolis, Ind.). Protein concentrations were determined by the Bradford assay. Equal amounts of protein were subjected to SDS-PAGE gels followed by transfer to nitrocellulose membranes. Membranes were probed with rabbit anti-human polyclonal anti-ubiquitin (1:1000 v/v) (Calbiochem, San Diego, Calif.), or mouse monoclonal anti-beta actin (1:10,000 v/v) (Sigma) followed by secondary horseradish peroxidase (HRP)-conjugated goat anti-mouse (1:10,000 v/v) or anti-rabbit IgG (1:5,000 v/v) (Amersham Bioscience UK, Little Chalfont, England). Detection was performed by the Enhanced Chemical Luminescence (ECL) method (Pierce, Rockford, Ill.).
Twenty four hours after treatment, the abundance of ubiquitinated proteins in the cells was measured by immunoblotting.

[6] = tested on: NFkappaB p50 subunit DNA binding in MDAY-D2 cells; assay: NFkappaB activity (p50 DNA-binding ELISA); format: cell-based, murine; settings: 24 hours 5AHQ, with and without TNF-alpha
Method: NFkappaB activity was measured using the Trans-AM NFkappaB p65 transcription factor assay kit (Active Motif, Carlsbad, Calif.) according to the manufacturer's instructions. […] Nuclear extracts were prepared using the Nuclear Extract kit (Active Motif, Carlsbad, Calif.) according to the manufacturer's instructions. Binding of the NFkappaB transcription factor subunit p50 to the DNA consensus sequence (5′-[…]-3′) cross linked to 96-well plates was measured using enzyme-linked immunosorbent assay (ELISA) technology with absorbance reading according to the manufacturer's protocol.

myeloma cell lines = assay: cell viability MTS assay, myeloma cell lines; format: cell-based, human; settings: 72 hours, in 7/7 myeloma cell lines
leukemia cell lines = assay: cell viability MTS assay, leukemia cell lines; format: cell-based, human and murine; settings: 72 hours, in 6/10 leukemia cell lines
solid tumor cell lines = assay: cell viability MTS assay, solid tumor cell lines; format: cell-based, human; settings: 72 hours, in 3/10 solid tumor cell lines
[7] = tested on: normal hematopoietic cells; assay: viability of normal hematopoietic cells (PBSC); format: cell-based, human
Method: Forty-eight hours after treatment, cell viability was measured by the MTS assay. Data represent the mean±SD percent viability compared to buffer treated cells. D) Primary acute myeloid leukemia (AML) blasts (n=4), CLL (n=5) or normal peripheral blood stem cells (PBSC) (n=3) were obtained from the peripheral blood of consenting patients with AML, CLL or donors of PBSC for allotransplantation, respectively. […] Data represent the mean±SD percentage of viable cells compared to buffer treated cells.
Primary cells. Primary human acute myeloid leukemia (AML) and chronic lymphocytic leukemia (CLL) samples were isolated from peripheral blood samples from consenting patients with AML and CLL, respectively, who had at least 80% malignant cells among the mononuclear cells in their peripheral blood. Primary normal hematopoietic cells were obtained from healthy volunteers donating peripheral blood mononuclear stem cells (PBSC) for allotransplantation. […]
Cell viability was assessed by the MTS (Promega, Madison, Wis.) and Alamar Blue Fluorescence assays (Invitrogen, Carlsbad, Calif.) according to manufacturer's instructions and as previously described [14]. Apoptosis was measured by Annexin V-FITC (Biovision Research Products, Mountain View, Calif.) staining and flow cytometry according to manufacturer's instructions and as previously described.

[8] = tested on: CEM cells over-expressing the multidrug resistant pumps Pgp, BCRP, or MRP1; assay: cell death in bortezomib-resistant CEM cells; format: cell-based; settings: CEM cells resistant to bortezomib by over-expression of Pgp
[9] = tested on: OCI-AML2 or K562 human leukemia cells, MDAY-D2 murine leukemia cells in NOD-SCID mice; assay: mouse models of leukemia (xenograft), oral 5AHQ; format: in vivo
Method: Sublethally irradiated NOD/SCID mice were injected subcutaneously with U937 and K562 leukemia cells or intraperitoneally with MDAY-D2 leukemia cells. […] Eight (MDAY-D2) or ten (U937 and K562) days after tumor inoculation, mice were sacrificed, the subcutaneous or intraperitoneal tumor excised, and the weight of the tumors measured. The bars represent the median of the population. p values reflect the Mann-Whitney non-parametric test.
MDAY-D2 murine leukemia cells (5×10^5) were injected intraperitoneally into sublethally irradiated (3.5 Gy) NOD/SCID mice (Ontario Cancer Institute, Toronto, Canada). […] Mice were sacrificed, and the weight and volume of the intraperitoneal tumors were measured.
K562 leukemia cells (3×10^6) or U937 leukemia cells (2×10^6) were injected subcutaneously (s.c.) into the flank of sublethally irradiated NOD/SCID mice. […] Mice were then sacrificed, and the weight of the tumors was measured.
Sublethally irradiated NOD-SCID mice were injected subcutaneously with OCI-AML2 or K562 human leukemia cells or intraperitoneally with MDAY-D2 murine leukemia cells.

LD50 in mice = settings: mouse, in vivo
[10] = tested on: bortezomib-resistant THP1 leukemia cells (β5 proteasome subunit mutated and over-expressed); settings: 72 hours, trypan blue staining
Method: (§5) Cell lines. Human multiple myeloma (MM) and solid tumor cell lines were grown in Iscove's Modified Dulbecco's Medium (IMDM). […] These cells were maintained in bortezomib up to at least 7 days prior to the experiment. Media were supplemented with 10% fetal calf serum (FCS), 100 ug/mL penicillin, and 100 units/mL streptomycin (all from Hyclone, Logan, Utah).
(§6) After incubation, cell viability was measured by trypan blue staining.

THP1/BTZ50 [11] = assay: cells; settings: Homo sapiens, THP-1, 72 h, read-out: IC50 5AHQ
Method: as §5, §6

THP1/BTZ100 [12] = assay: cells; settings: Homo sapiens, THP-1, 72 h, read-out: IC50 5AHQ
Method: as §5, §6

THP1/BTZ200 [13] = assay: cells; settings: Homo sapiens, THP-1, 72 h, read-out: IC50 5AHQ
Method: as §5, §6

THP1/BTZ500 [14] = assay: cells; settings: Homo sapiens, THP-1, 72 h, read-out: IC50 5AHQ
Method: as §5, §6

[15] = tested on: chymotrypsin-like activity of the proteasome in leukemia, myeloma, and solid tumor cell lines; assay: proteasome activity after treatment of intact cells (Suc-LLVY-AMC); settings: intact cells treated 24 hours, then lysed
Method: A) Myeloma, leukemia, and solid tumor cell lines were treated with increasing concentrations of 5AHQ. Twenty hours after treatment, cells were lysed and the preferential chymotrypsin-like substrate Suc-LLVY-AMC was added. The generation of free AMC was measured over time with a fluorescent spectrophotometric plate reader as described in the Materials and Methods. Data represent the mean±SD maximal rate of proteasomal activity expressed as a percentage of buffer treated cells.
To measure the effects of 5AHQ on the enzymatic activity of the proteasome in intact cells, solid tumor, leukemia and myeloma cell lines were treated with increasing concentrations of 5AHQ. Twenty hours after treatment, cells were lysed in 50 mM HEPES pH 7.5, 150 mM NaCl and 1% Triton X-100, and 2 mM ATP. To equal protein concentrations, the proteasome fluorogenic substrate, Suc-LLVY-AMC, was added and the generation of free AMC was measured over time with a fluorescent spectrophotometric plate reader as above.
Leukemia, myeloma, and solid tumor cell lines were treated with increasing concentration of 5AHQ for 24 hours. After treatment, cells were harvested, lysed, and the chymotrypsin-like activity of the proteasome was measured by monitoring the rate of cleavage of the fluorescent substrate Suc-LLVY-AMC.

THP1/WT = settings: data from Oerlemans et al, 2008; cited from earlier work
THP1/BTZ50 [16] = settings: data from Oerlemans et al, 2008; cited from earlier work
THP1/BTZ100 [17] = settings: data from Oerlemans et al, 2008; cited from earlier work
THP1/BTZ200 [18] = settings: data from Oerlemans et al, 2008; cited from earlier work
THP1/BTZ500 [19] = settings: data from Oerlemans et al, 2008; cited from earlier work
proteasome = settings: non-competitive inhibitor binding the alpha subunits [8]; cited from earlier work

T3 sequence (P25156 whole entry): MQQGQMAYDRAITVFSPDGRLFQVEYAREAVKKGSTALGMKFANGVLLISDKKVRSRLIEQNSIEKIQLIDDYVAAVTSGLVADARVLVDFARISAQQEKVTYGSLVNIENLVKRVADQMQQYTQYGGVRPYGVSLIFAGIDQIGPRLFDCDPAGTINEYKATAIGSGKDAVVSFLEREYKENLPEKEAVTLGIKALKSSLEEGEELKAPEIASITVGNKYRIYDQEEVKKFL
T3 sequence (P28061 9-211 partner): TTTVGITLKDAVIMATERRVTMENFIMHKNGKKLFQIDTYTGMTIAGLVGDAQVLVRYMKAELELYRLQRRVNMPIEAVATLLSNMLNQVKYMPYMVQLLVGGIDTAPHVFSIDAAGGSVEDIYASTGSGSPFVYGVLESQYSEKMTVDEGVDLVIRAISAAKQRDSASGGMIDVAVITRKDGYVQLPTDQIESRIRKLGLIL
T4 sequence (P25156 whole entry): as the sequence (P25156 whole entry) above

Nc1ccc(O)c2ncccc12 [5AHQ, 5-amino-8-hydroxyquinoline]
mode of inhibition [1]: noncompetitively
Ki [2]: 2.1 ± 0.18 µM
Ki [3]: 161 ± 4 µM
mode of inhibition ([3]; Lineweaver-Burk plot): non-competitive kinetics
inhibition of the enzymatic activity of the proteasome [4]: inhibited the enzymatic activity of the proteasome at low micromolar concentrations
NMR spectral changes on binding [5]: clear spectral changes localized to residues Ile159, Val113, Val87, Val82, Leu112, Val89, Val134, Val24 and Leu136
amount of ubiquitinated protein (LP1 myeloma cell lines): increased the amount of ubiquitinated protein
NFkappaB activity [6]: inhibited basal and TNF-alpha stimulated NFkappaB activity
LD50 (myeloma cell lines): < 5 µM
LD50 (leukemia cell lines): < 5 µM
LD50 (solid tumor cell lines): < 5 µM
concentration up to which not cytotoxic [7]: > 62.5 µM
sensitivity to 5AHQ-induced cell death [8]: remained equally sensitive to 5AHQ-induced cell death
decrease of tumor weight and volume compared to control ([9]; 50 mg/kg/day by oral gavage, all 3 mouse models): at least 50%
weight loss or gross organ toxicity ([9]; mouse, in vivo): without causing weight loss or gross organ toxicity
LD50 (LD50 in mice): > 1000 mg/kg
sensitivity to 5AHQ [10]: remained essentially fully sensitive to 5AHQ
IC50 (THP1/BTZ50 [11]): 6.6 ± 0.4 µM
IC50 (THP1/BTZ100 [12]): 6.3 ± 0.4 µM
IC50 (THP1/BTZ200 [13]): 6.4 ± 0.7 µM
IC50 (THP1/BTZ500 [14]): 6.6 ± 0.9 µM
rate of Suc-LLVY-AMC cleavage [15]: inhibited the rate of Suc-LLVY-AMC cleavage

CC(C)C[C@@H](C=O)NC(=O)[C@H](CC(C)C)NC(=O)[C@H](CC(C)C)NC(=O)OCc1ccccc1 [MG132, reference compound] (Cbz-Leu-Leu-Leu-aldehyde)
mode of inhibition [1]: competitively

CC(C)C[C@H](NC(=O)[C@H](Cc1ccccc1)NC(=O)c1cnccn1)B(O)O [bortezomib, [(1R)-3-Methyl-1-[[(2S)-1-oxo-3-phenyl-2-[(pyrazinylcarbonyl)amino]propyl]amino]butyl]boronic acid]
RF BTZ (Resistance Factor) (THP1/WT): 1
RF BTZ (Resistance Factor) (THP1/BTZ50 [16]): 45
RF BTZ (Resistance Factor) (THP1/BTZ100 [17]): 79
RF BTZ (Resistance Factor) (THP1/BTZ200 [18]): 129
RF BTZ (Resistance Factor) (THP1/BTZ500 [19]): 237

CCN(CC)CCCC(C)Nc1ccnc2cc(Cl)ccc12 (centres unmarked) [chloroquine]
proteasome inhibition relative to 5AHQ (proteasome): much weaker proteasome inhibitor than 5AHQ
